Marks after values point to notes of the source that are not given here. Starred links: 1 amine or outer side, 2 acyl side, 3 side chain; linkers in the order of their positions; H or OH if unused. Non-standard residues stand in square brackets, D forms with d. Residues, ends and D or L forms follow the SMILES beside them. Groups on a side chain read outwards from the residue. *: point of attachment. C20 diacid = O=C(O)CCCCCCCCCCCCCCCCCCC(=O)*; γGlu = O=C(O)[C@H](CCC(=O)[*:2])N[*:1]; NMeI = CC[C@H](C)[C@H](NC)C(=O)O; Nle = CCCC[C@H](N)C(=O)O; AEEA = NCCOCCOCC(=O)O; Aib = CC(C)(N)C(=O)O
Key:
[1] = Size exclusion chromatography for high molecular weight products (HMWP); format: physicochemical; details: for HMWP formation (SEC analysis) T14-T0 (%): 14 days; for HMWP formation (SEC analysis) T28-T0 (%): 28 days
Method: Dissolved samples were incubated for at least 2 h at room temperature on a rocking table. The main peak purity at time zero (T0) was determined using reversed phase chromatography. The samples were incubated at 40°C for 14 days (T14) and 28 days (T28). The samples were analyzed with reversed phase chromatography and size exclusion chromatography.
Size exclusion chromatography (SEC) was used as an analysis for the formation of high molecular weight products (HMWP, covalent dimers, trimers etc.,). SEC analyses was performed on Thermo Dionex Ultimate UHPLC system with UV detection at 215 nm) equipped with a SEC column (Waters BEH 125Å, 1.7 µm, 300mm x 4.6). Analysis was performed by isocratic elution using 60% buffer B (0.1% TFA in 5:95 H2O: acetonitrile) in buffer A (0.1% TFA in 95:5 H2O: acetonitrile) at a column temperature of 60° C over 20 min. Flowrate was 0.3 mL/min.
Chromatograms were integrated as HMWP (all peaks eluting before the main peak), main peak (assuming this is monomeric peptide) and if relevant LMWP (low molecular weight products, all peaks eluting after main peak). The amount of HMWP was reported as area relative to total area in percent.

[2] = Body mass and body fat content in mouse model of diet-induced obesity (DIO); format: in vivo; details: DIO mice; for relative body weight: 28 days, compared to vehicle; for Body weight at termination / Fat mass change from baseline / Lean mass change from baseline / Relative body weight change at termination / BW at termination: ± SEM
Method: SEQ ID NO: 3, SEQ ID NO: 6, SEQ ID NO: 238, SEQ ID NO: 16 and SEQ ID NO: 215 were assessed for their ability to reduce body mass and body fat content in a mouse model of diet-induced obesity (DIO).
Male C57BL/6JRj mice were obtained from JanVier (JanVier Labs, France) at 5 weeks of age. The animals were group-housed during obesity induction and then single housed 2 weeks prior to study start. They were housed under a 12/12 h dark-light cycle, light off at 3 PM. Room temperature was controlled to 22°C ± 1°C, with 60 % ± 20% humidity. For 22-23 weeks prior to treatment start and throughout the study, the animals had ad libitum access to high-fat diet (60% kcal fat, D12492, Research Diets) and tap water.
The animals were randomized according to lean mass (EchoMRI) and body weight. Animals were dosed subcutaneously […] for 30-32 days. In study 1, the animals were dosed with vehicle or SEQ ID NO: 3 (10, 30, 60 or 100 nmol/kg). In study 2, the animals were dosed with vehicle or SEQ ID NO: 6 (10 or 30 nmol/kg), SEQ ID NO: 238 (10 or 30 nmol/kg), SEQ ID NO: 16 (10 or 30 nmol/kg), SEQ ID NO: 215 (10 or 30 nmol/kg) or SEQ ID NO: 3 (30 nmol/kg).
Body weight and food intake were recorded daily until day 28 and body composition evaluated on day 26 using EchoMRI. At termination, blood for HbA1c analyses were collected and M. gastrocnemius and M. soleus were weighed.
Statistical significance was evaluated using One-way analysis of variance with Dunnett's multiple comparison test. P < 0.05 was considered statistically significant.

CCCC[C@H](NC(=O)[C@@H](NC(=O)[C@H](CCC(=O)O)NC(=O)C(C)(C)NC(=O)[C@H](CC(N)=O)NC(=O)[C@@H](NC(=O)[C@H](CCCCNC(=O)COCCOCCNC(=O)COCCOCCNC(=O)CC[C@H](NC(=O)CC[C@H](NC(=O)CCCCCCCCCCCCCCCCCCC(=O)O)C(=O)O)C(=O)O)NC(=O)[C@H](C)NC(=O)[C@H](CCC(N)=O)NC(=O)[C@H](CCC(=O)O)NC(=O)[C@H](CCCNC(=N)N)NC(=O)[C@H](C)NC(=O)[C@H](C)NC(=O)[C@H](CCCNC(=N)N)NC(=O)[C@H](C)NC(=O)[C@H](CCCNC(=N)N)NC(=O)[C@H](C)NC(=O)[C@H](CCC(N)=O)NC(=O)[C@H](CO)NC(=O)[C@H](CC(C)C)NC(=O)[C@H](CC(C)C)NC(=O)[C@@H](NC(=O)[C@H](CCC(N)=O)NC(=O)[C@H](CC(C)C)NC(=O)[C@H](CC(C)C)NC(=O)CNC(=O)[C@@H](NC(=O)[C@@H]1CCCN1C(=O)[C@@H](NC(=O)[C@H](CC(=O)O)NC(=O)[C@H](CC(C)C)NC(=O)[C@H](CO)NC(=O)[C@H](CC(C)C)NC(=O)[C@@H](NC(=O)[C@@H](NC)[C@@H](C)CC)C(C)C)C(C)C)[C@@H](C)CC)[C@@H](C)CC)[C@@H](C)O)[C@@H](C)CC)C(=O)N[C@@H](C)C(=O)N[C@@H](CCC(=O)O)C(=O)N[C@H](C(N)=O)C(C)C [SEQ ID NO: 215] (H-[NMeI]VLSLDVPIGLLQILLSQARARAAREQAK([AEEA-AEEA-γGlu-γGlu-C20 diacid])TN[Aib]EI[Nle]AEV-NH2)
HMWP formation (SEC analysis) T14-T0 (%) ([1]; pH 7.0, 40°C): -0.3%
HMWP formation (SEC analysis) T28-T0 (%) ([1]; pH 7.0, 40°C): -0.3%
HMWP formation (SEC analysis) T14-T0 (%) ([1]; pH 7.5, 40°C): 0.1%
HMWP formation (SEC analysis) T28-T0 (%) ([1]; pH 7.5, 40°C): 0.3%
HMWP formation (SEC analysis) T14-T0 (%) ([1]; pH 8.0, 40°C): 0.0%
HMWP formation (SEC analysis) T28-T0 (%) ([1]; pH 8.0, 40°C): -0.1%
body weight loss compared to SEQ ID NO: 16 ([2]; 10 nmol/kg, Fig. 5): relative higher body weight loss
relative body weight [2]: prolonged dose-dependent reduction
relative body weight ([2]; listed as 215): reduce body weight
Blood HbA1c ([2]; Table 17 study, 10 nmol/kg): 4.3 ± 0.1 %
M. Gastrocnemius ([2]; Table 17 study, 10 nmol/kg): 0.19 ± 0.002* ** g
M. Soleus ([2]; Table 17 study, 10 nmol/kg): 0.012 ± 0.0005 g
Body weight at termination ([2]; Table 17 study, 10 nmol/kg): 40.5 ± 1.2 g
Fat mass change from baseline ([2]; Table 17 study, 10 nmol/kg): -8.7 ± 0.5 g
Lean mass change from baseline ([2]; Table 17 study, 10 nmol/kg): 0.1 ± 0.5 g
Relative body weight change at termination ([2]; Table 17 study, 10 nmol/kg): 85.5 ± 1.3 %
Blood HbA1c ([2]; Table 17 study, 30 nmol/kg): 4.4 ± 0.03 %
M. Gastrocnemius ([2]; Table 17 study, 30 nmol/kg): 0.18 ± 0.003 g
M. Soleus ([2]; Table 17 study, 30 nmol/kg): 0.012 ± 0.0005 g
Body weight at termination ([2]; Table 17 study, 30 nmol/kg): 38.9 ± 1.1 g
Fat mass change from baseline ([2]; Table 17 study, 30 nmol/kg): -9.9 ± 0.7 g
Lean mass change from baseline ([2]; Table 17 study, 30 nmol/kg): -0.5 ± 0.3 g
Relative body weight change at termination ([2]; Table 17 study, 30 nmol/kg): 81.8 ± 1.9 %

CC[C@H](C)[C@H](N)C(=O)N[C@H](C(=O)N[C@@H](CC(C)C)C(=O)N[C@@H](CO)C(=O)N[C@@H](CC(C)C)C(=O)N[C@@H](CC(=O)O)C(=O)N[C@H](C(=O)N1CCC[C@H]1C(=O)N[C@H](C(=O)NCC(=O)N[C@@H](CC(C)C)C(=O)N[C@@H](CC(C)C)C(=O)N[C@@H](CCC(N)=O)C(=O)N[C@H](C(=O)N[C@@H](CC(C)C)C(=O)N[C@@H](CC(C)C)C(=O)N[C@@H](CCC(=O)O)C(=O)N[C@@H](CCC(N)=O)C(=O)N[C@@H](C)C(=O)N[C@@H](CCCNC(=N)N)C(=O)N[C@@H](C)C(=O)N[C@@H](CCCNC(=N)N)C(=O)N[C@@H](C)C(=O)N[C@@H](C)C(=O)N[C@@H](CCCNC(=N)N)C(=O)N[C@@H](CCC(=O)O)C(=O)N[C@@H](CCC(N)=O)C(=O)N[C@@H](C)C(=O)N[C@@H](CCCCNC(=O)COCCOCCNC(=O)COCCOCCNC(=O)CC[C@H](NC(=O)CC[C@H](NC(=O)CCCCCCCCCCCCCCCCCCC(=O)O)C(=O)O)C(=O)O)C(=O)N[C@H](C(=O)N[C@@H](CC(N)=O)C(=O)N[C@@H](C)C(=O)N[C@@H](CCC(=O)O)C(=O)N[C@H](C(=O)N[C@@H](CC(C)C)C(=O)N[C@@H](C)C(=O)N[C@@H](CCC(=O)O)C(=O)N[C@H](C(N)=O)C(C)C)[C@@H](C)CC)[C@@H](C)O)[C@@H](C)CC)[C@@H](C)CC)C(C)C)C(C)C [SEQ ID NO: 3] (H-IVLSLDVPIGLLQILLEQARARAAREQAK([AEEA-AEEA-γGlu-γGlu-C20 diacid])TNAEILAEV-NH2)
relative body weight [2]: prolonged dose-dependent reduction
Blood HbA1c ([2]; Table 16 study, 10 nmol/kg): 4.3 ± 0.1%
M. Gastrocnemius ([2]; Table 16 study, 10 nmol/kg): 0.17 ± 0.005 g
M. Soleus ([2]; Table 16 study, 10 nmol/kg): 0.011 ± 0.0005 g
BW at termination ([2]; Table 16 study, 10 nmol/kg): 41.9 ± 1.5 g
Fat mass change from baseline ([2]; Table 16 study, 10 nmol/kg): -7.7 ± 0.7 g
Lean mass change from baseline ([2]; Table 16 study, 10 nmol/kg): 1.4 ± 0.3 g
Relative body weight change at termination ([2]; Table 16 study, 10 nmol/kg): 94.3 ± 1.6 %
Blood HbA1c ([2]; Table 16 study, 30 nmol/kg): 4.1 ± 0.1 %
M. Gastrocnemius ([2]; Table 16 study, 30 nmol/kg): 0.17 ± 0.003 g
M. Soleus ([2]; Table 16 study, 30 nmol/kg): 0.012 ± 0.0005 g
BW at termination ([2]; Table 16 study, 30 nmol/kg): 38.2 ± 1.0 g
Fat mass change from baseline ([2]; Table 16 study, 30 nmol/kg): -10.2 ± 0.6 g
Lean mass change from baseline ([2]; Table 16 study, 30 nmol/kg): 0.4 ± 0.4 g
Relative body weight change at termination ([2]; Table 16 study, 30 nmol/kg): 89.0 ± 2.2 %
Blood HbA1c ([2]; Table 16 study, 60 nmol/kg): 4.15 ± 0.1 %
M. Gastrocnemius ([2]; Table 16 study, 60 nmol/kg): 0.16 ± 0.004 g
M. Soleus ([2]; Table 16 study, 60 nmol/kg): 0.012 ± 0.0004 g
BW at termination ([2]; Table 16 study, 60 nmol/kg): 38.5 ± 0.6 g
Fat mass change from baseline ([2]; Table 16 study, 60 nmol/kg): -10.8 ± 0.6 g
Lean mass change from baseline ([2]; Table 16 study, 60 nmol/kg): 0.8 ± 0.3 g
Relative body weight change at termination ([2]; Table 16 study, 60 nmol/kg): 89.9 ± 1.9 %
Blood HbA1c ([2]; Table 16 study, 100 nmol/kg): 4.1 ± 0.1 %
M. Gastrocnemius ([2]; Table 16 study, 100 nmol/kg): 0.17 ± 0.003 g
M. Soleus ([2]; Table 16 study, 100 nmol/kg): 0.011 ± 0.0006 g
BW at termination ([2]; Table 16 study, 100 nmol/kg): 37.3 ± 0.6 g
Fat mass change from baseline ([2]; Table 16 study, 100 nmol/kg): -11.2 ± 0.6 g
Lean mass change from baseline ([2]; Table 16 study, 100 nmol/kg): 0.8 ± 0.2 g
Relative body weight change at termination ([2]; Table 16 study, 100 nmol/kg): 87.7 ± 1.3 %
Blood HbA1c ([2]; Table 17 study, 30 nmol/kg): 4.2 ± 0.1 %
M. Gastrocnemius ([2]; Table 17 study, 30 nmol/kg): 0.19 ± 0.003* * g
M. Soleus ([2]; Table 17 study, 30 nmol/kg): 0.013 ± 0.0006 g
Body weight at termination ([2]; Table 17 study, 30 nmol/kg): 39.3 ± 0.9 g
Fat mass change from baseline ([2]; Table 17 study, 30 nmol/kg): -9.5 ± 0.6 g
Lean mass change from baseline ([2]; Table 17 study, 30 nmol/kg): -0.2 ± 0.2 g
Relative body weight change at termination ([2]; Table 17 study, 30 nmol/kg): 82.4 ± 1.6 %

From patent EP4810052A2, “HCRHR2 SELECTIVE POLYPEPTIDES” (Gubra A/S, priority 2023, dated 2026)
